The target in this assay is T1, hMAGL (Homo sapiens, UniProt Q99685).
T1 sequence (Q99685 1-303): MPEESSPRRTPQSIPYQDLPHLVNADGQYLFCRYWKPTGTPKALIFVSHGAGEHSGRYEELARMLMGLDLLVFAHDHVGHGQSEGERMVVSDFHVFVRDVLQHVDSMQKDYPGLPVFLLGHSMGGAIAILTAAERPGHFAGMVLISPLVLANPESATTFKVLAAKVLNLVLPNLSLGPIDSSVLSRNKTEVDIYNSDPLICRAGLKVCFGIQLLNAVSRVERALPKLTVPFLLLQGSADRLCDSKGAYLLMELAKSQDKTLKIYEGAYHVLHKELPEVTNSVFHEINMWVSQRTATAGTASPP
Nature of the assay: 2-AG assay: MAGL inhibition, hydrolysis of 2-arachidonoylglycerol to arachidonic acid followed by mass spectrometry. It is filed as biochemical. The method, boiled down:
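MAGL preincubated with compound 15 min at RT in 50 mM Tris, 1 mM EDTA, 0.01% Tween-20, 2.5% DMSO; reaction started with 8 μM 2-AG (final), […], 30 min at RT. Quenched with acetonitrile containing d8-arachidonic acid; arachidonic acid quantified by RapidFire SPE-triple quad MS as arachidonic acid/d8 ratio.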

SMILES strings stand for the structures. pIC50: −log10 of the molar value.

This note sets out measurements from patent US20260374756A1, “HETEROCYCLIC COMPOUNDS AS INHIBITORS OF MONOACYLGLYCEROL LIPASE (MAGL)” (Hoffmann-La Roche Inc., priority 2022, published 2026).

Regarding `O=C(N1CC2(CC(Cc3cnn(CC(F)(F)F)n3)C2)C1)N1CC2(CC(n3cnc(C4(O)CC4)n3)C2)C1` [Example 202, [6-[3-(1-hydroxycyclopropyl)-1,2,4-triazol-1-yl]-2-azaspiro[3.3]heptan-2-yl]-[6-[[2-(2,2,2-trifluoroethyl)triazol-4-yl]methyl]-2-azaspiro[3.3]heptan-2-yl]methanone], the pIC50 is 7.90.

As for `Cn1ncc(P(C)(C)=O)c1CN1CC2(C1)CN(C(=O)N1CC3(CC(n4cnc(C5CC5)n4)C3)C1)C2` [Example 228, [6-(3-cyclopropyl-1,2,4-triazol-1-yl)-2-azaspiro[3.3]heptan-2-yl]-[6-[(4-dimethylphosphoryl-2-methyl-pyrazol-3-yl)methyl]-2,6-diazaspiro[3.3]heptan-2-yl]methanone], the negative-log IC50 (pIC50) is 6.68. In the case of `O=C(N1CC2(CC(n3cnc(C(F)(F)F)n3)C2)C1)N1CC2(CN(Cc3nnnn3CC(F)(F)F)C2)C1` [Example 197, [6-[[1-(2,2,2-trifluoroethyl)tetrazol-5-yl]methyl]-2,6-diazaspiro[3.3]heptan-2-yl]-[6-[3-(trifluoromethyl)-1,2,4-triazol-1-yl]-2-azaspiro[3.3]heptan-2-yl]methanone], the pIC50 was 6.35.

Take `O=C(N1CC2(CC(n3cnc(C(F)(F)F)n3)C2)C1)N1CC2(CN(Cc3cnn(C(F)F)c3)C2)C1` [Example 262, [6-[[1-(difluoromethyl)pyrazol-4-yl]methyl]-2,6-diazaspiro[3.3]heptan-2-yl]-[6-[3-(trifluoromethyl)-1,2,4-triazol-1-yl]-2-azaspiro[3.3]heptan-2-yl]methanone]: the pIC50 is 6.27. As for `Cc1onc(C2CC2)c1CN1CC2(C1)CN(C(=O)N1CC3(CC(n4cnc(C(F)(F)F)n4)C3)C1)C2` [Example 267, [6-[(3-cyclopropyl-5-methyl-isoxazol-4-yl)methyl]-2,6-diazaspiro[3.3]heptan-2-yl]-[6-[3-(trifluoromethyl)-1,2,4-triazol-1-yl]-2-azaspiro[3.3]heptan-2-yl]methanone], the figure is 7.18; as for `O=C(N1CC2(CC(Cc3cc(C(F)F)n[nH]3)C2)C1)N1CC2(CC(n3cnc(C(F)F)n3)C2)C1` [Example 334, [6-[[3-(difluoromethyl)-1H-pyrazol-5-yl]methyl]-2-azaspiro[3.3]heptan-2-yl]-[6-[3-(difluoromethyl)-1,2,4-triazol-1-yl]-2-azaspiro[3.3]heptan-2-yl]methanone], 8.01; as for `O=C(N1CC2(CC(Cn3ccnc3C(F)(F)F)C2)C1)N1CC2(CC(n3cnc(C4(O)CC4)n3)C2)C1` [Example 146], 7.83. `O=C(N1CC2(CC(Cc3cnn4ccc(C(F)(F)F)nc34)C2)C1)N1CC2(CC(n3cnc(C4CC4)n3)C2)C1` [Example 358, [6-(3-cyclopropyl-1,2,4-triazol-1-yl)-2-azaspiro[3.3]heptan-2-yl]-[6-[[5-(trifluoromethyl)pyrazolo[1,5-a]pyrimidin-3-yl]methyl]-2-azaspiro[3.3]heptan-2-yl]methanone] showed a negative logarithm of the IC50 (pIC50) of 10.05. `O=C(N1CC2(CC(Cc3nc(C(F)(F)F)c[nH]3)C2)C1)N1CC2(CC(n3cnc(C4CC4)n3)C2)C1` [Example 351, [6-(3-cyclopropyl-1,2,4-triazol-1-yl)-2-azaspiro[3.3]heptan-2-yl]-[6-[[4-(trifluoromethyl)-1H-imidazol-2-yl]methyl]-2-azaspiro [3.3]heptan-2-yl]methanone] gave a pIC50 of 9.11. With `CS(=O)(=O)c1cnn(CC2CC3(C2)CN(C(=O)N2CC4(CC(n5cnc(C6CC6)n5)C4)C2)C3)c1` [Example 332, [6-(3-cyclopropyl-1,2,4-triazol-1-yl)-2-azaspiro[3.3]heptan-2-yl]-[6-[(4-mesylpyrazol-1-yl)methyl]-2-azaspiro[3.3]heptan-2-yl]methanone] the figure was 7.94. With `O=C(N1CC2(CC(Cc3nc(C(F)(F)F)no3)C2)C1)N1CC2(CC(n3cnc(C4(O)CC4)n3)C2)C1` [Example 138] the figure was 7.74; with `Cc1cc(C(F)(F)F)nn1CC1CC2(C1)CN(C(=O)N1CC3(CC(n4cnc(C5(O)CC5)n4)C3)C1)C2` [Example 70], 6.88; with `Cn1cc(OC2CC3(C2)CN(C(=O)N2CC4(CC(n5cnc(C6(O)CC6)n5)C4)C2)C3)c(C(F)(F)F)n1` [Example 59, [6-[3-(1-hydroxycyclopropyl)-1,2,4-triazol-1-yl]-2-azaspiro[3.3]heptan-2-yl]-[6-[1-methyl-3-(trifluoromethyl)pyrazol-4-yl]oxy-2-azaspiro[3.3]heptan-2-yl]methanone], 7.26. `Cn1nc(C(F)(F)F)cc1CN1CCC2(CC1)CN(C(=O)N1CC3(CC(n4cnc(C5(O)CC5)n4)C3)C1)C2` [Example 27, [6-[3-(1-hydroxycyclopropyl)-1,2,4-triazol-1-yl]-2-azaspiro[3.3]heptan-2-yl]-[7-[[2-methyl-5-(trifluoromethyl)pyrazol-3-yl]methyl]-2,7-diazaspiro[3.5]nonan-2-yl]methanone] had a pIC50 of 6.91. With `N=S(=O)(c1cnn(CC2CC3(C2)CN(C(=O)N2CC4(CC(n5cnc(C(F)(F)F)n5)C4)C2)C3)c1)C(F)(F)F` (centres unmarked) [Example 341, [6-[[4-(trifluoromethylsulfonimidoyl)pyrazol-1-yl]methyl]-2-azaspiro[3.3]heptan-2-yl]-[6-[3-(trifluoromethyl)-1,2,4-triazol-1-yl]-2-azaspiro[3.3]heptan-2-yl]methanone], the pIC50 is 8.45. The compound `O=C(N1CC2(CC(Cc3n[nH]c(C(F)(F)F)n3)C2)C1)N1CC2(CC(n3cnc(C4(O)CC4)n3)C2)C1` [Example 11, [6-[3-(1-hydroxycyclopropyl)-1,2,4-triazol-1-yl]-2-azaspiro[3.3]heptan-2-yl]-[6-[[5-(trifluoromethyl)-1H-1,2,4-triazol-3-yl]methyl]-2-azaspiro[3.3]heptan-2-yl]methanone] gave a pIC50 of 7.69. Take `O=C(N1CC2(CC(n3cnc(C(F)F)n3)C2)C1)N1CC2(CN(Cc3cn[nH]c3C(F)(F)F)C2)C1` [Example 310, [6-[3-(difluoromethyl)-1,2,4-triazol-1-yl]-2-azaspiro[3.3]heptan-2-yl]-[6-[[5-(trifluoromethyl)-1H-pyrazol-4-yl]methyl]-2,6-diazaspiro[3.3]heptan-2-yl]methanone]: the pIC50 was 6.46.

For `O=C(N1CC2(CC(Cc3nc(C4CC4)n[nH]3)C2)C1)N1CC2(CC(c3cc(C4CC4)n[nH]3)C2)C1` [Example 301, [6-(3-cyclopropyl-1H-pyrazol-5-yl)-2-azaspiro[3.3]heptan-2-yl]-[6-[(3-cyclopropyl-1H-1,2,4-triazol-5-yl)methyl]-2-azaspiro[3.3]heptan-2-yl]methanone], the negative logarithm of the IC50 (pIC50) was 8.96. As for `O=C(N1CC2(CC(n3cnc(C4CC4)n3)C2)C1)N1CC2(CN(Cc3noc(C(F)(F)F)n3)C2)C1` [Example 323, [6-(3-cyclopropyl-1,2,4-triazol-1-yl)-2-azaspiro[3.3]heptan-2-yl]-[6-[[5-(trifluoromethyl)-1,2,4-oxadiazol-3-yl]methyl]-2,6-diazaspiro[3.3]heptan-2-yl]methanone], the figure is 7.44; as for `O=C(N1CC2(CC(n3cnc(C4CC4)n3)C2)C1)N1CC2(CN(Cc3cnn(C(F)F)c3)C2)C1` [Example 263, [6-(3-cyclopropyl-1,2,4-triazol-1-yl)-2-azaspiro[3.3]heptan-2-yl]-[6-[[1-(difluoromethyl)pyrazol-4-yl]methyl]-2,6-diazaspiro[3.3]heptan-2-yl]methanone], 6.99.

The pIC50 is the IC50 on a negative log10 scale, so that one unit is a factor of ten. A lower pIC50 goes with a large IC50.
